Assays:
E. coli = experiment: Supplements to rich/selective media in RepFIC transformations; type: cell-based; conditions: for effective as substitute for the L-cysteine effect in RepFIC transformations: supplement to rich media, glutathione 300 micrograms per ml; for increase in the number of transformants: supplement added to the selective medium
C600 [1] = experiment: Transformation of scL and scH RepFIC plasmid DNAs into C600; type: cell-based, E. coli; conditions: supplement added after electroporation and/or during selection
Procedure: The package consists of homocysteine, ferrous sulfate, and magnesium sulfate.
To ascertain that the scL phenotype was heritable under all circumstances and viable, scL DNA was transferred into C600 by electroporation. Selection of transformants was carried out without additional supplements or in the presence of cysteine or glutathione. […] Thus, although an additional source of cysteine is still required under the conditions of this transformation, cysteine becomes toxic at the concentration that was previously used.
In order to identify the contribution of co-transmitted molecules that are easily removed, scL DNA was in vitro salt-stripped before being transformed. […] Plasmid preparations are associated with several proteins, of about 32 kda in size, which could be the dam-methyltransferase (GenBank accession no. J01600). Therefore, it is possible that the dam-methyltransferase is one significant component removed by the salt treatment.
The methylation reaction per se could have become limiting as a result of the removal of methyltransferase, and activation of the biosynthesis of S-adenosylmethionine (SAM), the methyl donor in the methylation reaction, could help overcome low enzyme levels in the cell. Homocysteine is a known co-inducer of the MetR regulon (Schell, 1993), and thus activates the synthesis of SAM (Palmer and Marinus, 1994). […]

lon host Δlon-510 = experiment: Plasmid yield after overnight growth with glycerol as carbon source; type: cell-based, E. coli; conditions: homocysteine and ferrous sulfate supplements
Procedure: (§1) Glycerol, when used as a carbon source, avoids catabolite repression. The plasmid was prepared from the following hosts grown overnight with the supplements homocysteine and ferrous sulfate, using glycerol as a carbon source: C600 containing the non-imprinted plasmid, the lon host Δlon-510 (containing the imprinted scL plasmid), and C600 containing the imprinted scL plasmid. […] One interpretation of the difference seen between lanes 3-4 and 5-6 is that when Lon is present (C600) and there is no catabolite repression, the post-replicative steps occur at a sufficient rate to adjust for the recovery of the final product, scH plasmid. When Lon is absent, stimulation of steps occurring after normal Lon-processing are ineffective because the substrate for these steps is insufficient.

C600 [2] = experiment: as above; type: cell-based, E. coli; conditions: homocysteine and ferrous sulfate supplements
Procedure: as §1

C600 hosts = conditions: additives: cysteine, cystine, or glutathione
From the text: Single colonies that were normal in appearance, selected after transformation of C600 hosts in the presence of cysteine (Table 1, row 1) were resuspended in liquid medium. Aliquots were streaked onto spectinomycin-containing plates and spectinomycin plates with the following additives: cysteine, cystine, or glutathione.
Single colonies selected after transformation of C600 hosts in the presence of cysteine (Table 1, row 1) were initially difficult to grow.

Compound: CC(=O)NC(CS)C(=O)O (racemic) [-acetyl-D,L-cysteine, N-acetyl-D,L-cysteine]
- effective as substitute for the L-cysteine effect in RepFIC transformations (E. coli): None of these was effective

Compound: N[C@@H](CCS)C(=O)O [Homocysteine, homocysteine]
- recovery of transformants with highly purified (salt-stripped) transforming DNA (C600 [1]): rescued the transforming ability

Compound: N[C@@H](CS(=O)(=O)O)C(=O)O [L0cysteic acid, L-cysteic acid]
- effective as substitute for the L-cysteine effect in RepFIC transformations (E. coli): None of these was effective

Compound: N=C(N)NCCC[C@H](N)C(=O)O [L-arginine]
- effective as substitute for the L-cysteine effect in RepFIC transformations (E. coli): None of these was effective

Compound: N[C@@H](CS)C(=O)O [L-cysteine]
- optimal concentration of cysteine (E. coli; selective medium, RepFIC transformation): 400 micrograms per ml
- increase in the number of transformants (E. coli; RepFIC): ~10^3 fold
- recovery of transformants with highly purified (salt-stripped) transforming DNA (C600 [1]): no longer helped in the recovery of transformants

Compound: N[C@@H](CSSC[C@H](N)C(=O)O)C(=O)O [L-cystine]
- effective as substitute for the L-cysteine effect in RepFIC transformations (E. coli): None of these was effective

Compound: CSCC[C@H](N)C(=O)O [L-methionine]
- effective as substitute for the L-cysteine effect in RepFIC transformations (E. coli): None of these was effective

Compound: O=S(=O)([O-])[O-].[Mg+2] [Magnesium sulfate, magnesium sulfate]
- increase in the transformation efficiency (E. coli; supplement added after electroporation, RepFIC): no effect
- increase in the number of transformants (E. coli; RepFIC): no effect

Compound: OCC(O)CO [glycerol]
- increase in yield of plasmid (lon host Δlon-510): 5 to 10 fold
- increase in yield of plasmid (C600 [2]): 5 to 10 fold

Compound: glutamyl-cysteinylglycine [glutathione]
- growth of cysteine-selected transformants on spectinomycin plates with additive (C600 hosts): only grew on the glutathione-supplemented plates
- number of colonies obtained (E. coli; glutathione 300 micrograms per ml compared to 400 micrograms cysteine per ml): the same as with cysteine
- effective as substitute for the L-cysteine effect in RepFIC transformations (E. coli): effective

— patent US6849455B1, “Enhanced recovery of transformed cells” (New York University, priority 2000, dated 2005)
